Data as given in patent US8519139B2, “Indazolamides with analgesic activity” (Aziende Chimeche Riunite Angelini Francesco A.C.R.A.F. …, priority 2003, dated 2013).

Columns and labels:
[1] = test system: Mechanical hyperalgesia in rats with streptozotocin-induced diabetes (diabetic neuropathy); assay: Mechanical hyperalgesia in rats with streptozotocin-induced diabetes; assay type: in vivo, rat; conditions: male CD rats, dose 10^-5 mol/kg, 2 h after treatment, vehicle 114 ± 2.7, normal animals 240±8.7 g
Protocol: 2. Mechanical Hyperalgesia in Rats with Streptozotocin-induced Diabetes
Male CD rats weighing 240-300 g on arrival were used.
The diabetic syndrome was induced by means of a single intraperitoneal (i.p.) injection of 80 mg/kg of streptozotocin dissolved in sterile physiological solution [Courteix C, Eschalier A, Lavarenne J. Streptozotocin-induced diabetic rats: behavioural evidence for a model of chronic pain. Pain, 1993; 53: 81-88; Bannon A W, Decker M W, Kim D J, Campbell J E, Arneric S P. ABT-594, a novel cholinergic channel modulator, is efficacious in nerve ligation and diabetic neuropathy models of neuropathic pain. Brain Res. 1998; 801:158-63].
At least three weeks after the injection of streptozotocin, rats with a level of glycemia≧300 mg/dl and with a response threshold to a mechanical nociceptive stimulus ≦120 g were selected. The glycemia levels were measured by means of a reflectometer, using reactive strips impregnated with glucose oxidase. The pain threshold was measured using an analgesimeter. By applying a gradual increase in pressure onto the dorsal area of the left hind paw of the rat, the instrument makes it possible to record the nocifensive response, expressed in grams, corresponding to the moment at which the animal retracts the paw.
Two hours after the treatment, the pain threshold measured in control animals was compared with that measured in animals treated with the test product (dose: 10^−5 mol/kg).
The control animals were treated with the same vehicle (water) used for administering the test products.

[2] = test system: CFA-induced mechanical hyperalgesia in rats; assay: CFA-induced mechanical hyperalgesia in rats; assay type: in vivo, rat; conditions: male CD rats, dose 10^-5 mol/kg, test 23 hours after injecting the CFA, 1 h after treatment; vehicle 120 ± 6.1, normal animals 155±2.1 g
Text: 1. CFA-induced Mechanical Hyperalgesia in Rats
Male CD rats weighing 150-200 g on arrival were used.
By means of an analgesimeter, rats with a response threshold to a mechanical nociceptive stimulus in the range from 150 to 180 g were selected. By applying a gradual increase in pressure onto the dorsal region of the left hind paw of the rat, the instrument makes it possible to record the nocifensive response, expressed in grams, corresponding to the moment at which the animal retracts the paw [Randall L O and Selitto J J. A method for the measurement of analgesic activity on inflamed tissue. Arch. Int. Pharmacodyn. Ther. 1957; 111: 409-419].
The hyperalgesia was induced by unilateral injection of 150 μl of “Complete Freund's Adjuvant” (CFA) into the surface of the left hind paw of the animal [Andrew D, Greenspan J D. Mechanical and heat sensitization of cutaneous nociceptors after peripheral inflammation in the rat. J Neurophysiol. 1999; 82(5): 2649-2656; Hargreaves K, Dubner R, Brown R, Flores C, Joris J. A new and sensitive method for measuring thermal nociception in cutaneous hyperalgesia. Pain 1988; 32: 77-88].
The test compounds were tested (dose: 10^−5 mol/kg) by performing the test 23 hours after injecting the CFA.
One hour after the treatment, the pain threshold measured in control animals was compared with that measured in animals treated with the test product. The control animals were treated with the same vehicle (water) used for administering the test products.

Row | SMILES | Pain threshold (g) 2 h after the treatment [1] | Pain threshold (g) 1 h after the treatment [2]
1 | Cc1ccc(S(=O)(=O)O)cc1.O=C(CN1CCC(CNC(=O)c2n[nH]c3ccccc23)CC1)Nc1ccccc1 [AF3R276, N3-((1-(2-oxo-2-(phenylamino)ethyl)-4-piperidyl)methyl)-1H-indazole-3-carboxamide tosylate] | 210 ± 10.9 g | 185 ± 15.9 g
2 | CC(C)n1nc(C(=O)NCC2CCN(CC(=O)Nc3ccc(OCc4ccccc4)cc3)CC2)c2ccccc21 [AF3R331, N3-((1-(2-oxo-2-((4-((phenylmethyl)oxy)phenyl)amino)ethyl)-4-piperidyl)methyl)-1-(1-methylethyl)-1H-indazole-3-carboxamide] | 192 ± 11.5 g | 156 ± 8.7 g
3 | Cc1ccc2[nH]nc(C(=O)NCC3CCN(CC(=O)Nc4ccccc4)CC3)c2c1.Cl [AF3R295, 5-methyl-N-3-((1-(2-oxo-2-(phenylamino)ethyl)-4-piperidyl)methyl)-1H-indazole-3-carboxamide hydrochloride] | 212 ± 14.6 g | 202 ± 17.0 g
4 | CC(C)n1nc(C(=O)NCC2CCN(CC(=O)Nc3ccc(O)cc3)CC2)c2ccccc21.Cl [AF3R278, N3-((1-(2-((4-hydroxyphenyl)amino)-2-oxoethyl)-4-piperidyl)methyl)-1-(1-methylethyl)-1H-indazole-3-arboxamide hydrochloride] | 240 ± 16.5 g | 164 ± 10.2 g
5 | CC(C)n1nc(C(=O)NCC2CCN(CC(=O)Nc3ccc([N+](=O)[O-])cc3)CC2)c2ccccc21 [AF3R335, N3-((1-(2-oxo-2-((4-nitrophenyl)amino)ethyl)-4-piperidyl)methyl)-1-(1-methylethyl)-1H-indazole-3-carboxamide] | 180 ± 13.0 g | 168 ± 6.8 g
6 | Cc1ccc2c(c1)c(C(=O)NCC1CCN(CC(=O)Nc3ccccc3)CC1)nn2C(C)C.Cl [AF3R299, 5-methyl-N-3-((1-(2-oxo-2-(phenylamino)ethyl)-4-piperidyl)methy 1)-1-(1-methylethyl)-1H-indazole-3-carboxamide hydrochloride] | 200 ± 10.7 g | 167 ± 8.5 g
7 | Cl.O=C(CN1CCC(CNC(=O)c2nn(Cc3ccccc3)c3ccccc23)CC1)Nc1ccccc1 [AF3R277, N3-((1-(2-oxo-2-(phenylamino)ethyl)-4-piperidyl)methyl)-1-benzyl-1H-indazole-3-carboxamide hydrochloride] | 188 ± 11.0 g | 170 ± 10.7 g
8 | CC(C)n1nc(C(=O)NCC2CCN(CC(=O)Nc3ccc(N(C)C)cc3)CC2)c2ccccc21.Cl.Cl [AF3R301, N3-((1-(2-oxo-2-((4-(dimethylamino)phenyl)amino)ethyl)-4-piperidyl)methyl)-1-(1-methylethyl)-1H-indazole-3-carboxamide dihydrochloride] | 201 ± 13.8 g | 151 ± 10.7 g
9 | CC(C)n1nc(C(=O)NCC2CCN(CC(=O)Nc3ccc(N)cc3)CC2)c2ccccc21.Cl.Cl [AF3R292, N3-((1-(2-oxo-2-((4-aminophenyl)amino)ethyl)-4-piperidyl)methyl)-1-(1-methylethyl)-1H-indazole-3-carboxamide dihydrochloride] | 202 ± 8.7 g | 154 ± 11.5 g
10 | CC(C)n1nc(C(=O)NCC2CCN(CC(=O)Nc3ccccc3)CC2)c2ccccc21.Cl [AF3R172, N3-((1-(2-oxo-2-(phenylamino)ethyl)-4-piperidyl)methyl)-1-(1-methylethyl)-1H-indazole-3-carboxamide hydrochloride] | 186 ± 13.0 g | 175 ± 10.2 g
11 | Cc1cccc(C)c1NC(=O)CN1CCC(CNC(=O)c2nn(C(C)C)c3ccccc23)CC1.O=C(O)C(=O)O [AF3R305, N3-((1-(2-oxo-2-((2,6-dimethylphenyl)amino)ethyl)-4-piperidyl)methyl)-1-(1-methylethyl)-1H-indazole-3-carboxamide oxalate] | 189 ± 9.2 g | 174 ± 8.4 g
